Reference: PubChem BioAssay (NCI)
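Cells were grown in 96-well plates and exposed to each compound for 48 hours at five concentrations; endpoints were interpolated linearly between bracketing concentrations, or set to the highest concentration if not reached. TGI: concentration producing complete growth inhibition.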

Experiments:
Assay in all cases: growth of human tumour cells (NCI), 48 h
[1] = tested on: RPMI-8226 leukemia
[2] = tested on: OVCAR-5 ovarian
[3] = tested on: XF 498 CNS
[4] = tested on: UO-31 renal
[5] = tested on: CAKI-1 renal
[6] = tested on: DMS 273 small cell lung
[7] = tested on: LXFL 529 NSCLC
[8] = tested on: COLO 205 colon
[9] = tested on: HL-60(TB) leukemia
[10] = tested on: HCT-116 colon
[11] = tested on: NCI-H460 lung
[12] = tested on: SNB-75 CNS
[13] = tested on: SF-268 CNS
[14] = tested on: UACC-257 melanoma
[15] = tested on: A498 renal
[16] = tested on: HOP-18 NSCLC
[17] = tested on: RXF 393 renal
[18] = tested on: OVCAR-3 ovarian
[19] = tested on: TK-10 renal
[20] = tested on: HOP-62 NSCLC
[21] = tested on: RXF-631 renal
[22] = tested on: A549 NSCLC
[23] = tested on: SK-OV-3 ovarian
[24] = tested on: K-562 leukemia
[25] = tested on: LOX IMVI melanoma
[26] = tested on: 786-0 renal
[27] = tested on: MOLT-4 leukemia
[28] = tested on: UACC-62 melanoma
[29] = tested on: CCRF-CEM leukemia
[30] = tested on: EKVX NSCLC
[31] = tested on: KM20L2 colon
[32] = tested on: ACHN renal
[33] = tested on: SK-MEL-2 melanoma
[34] = tested on: OVCAR-8 ovarian
[35] = tested on: OVCAR-4 ovarian
[36] = tested on: M14 melanoma
[37] = tested on: DLD-1 colon
[38] = tested on: DMS 114 small cell lung
[39] = tested on: KM12 colon
[40] = tested on: SR leukemia
[41] = tested on: SNB-19 CNS
[42] = tested on: HT29 colon
[43] = tested on: SN12C renal
[44] = tested on: NCI-H226 lung
[45] = tested on: SK-MEL-5 melanoma
[46] = tested on: U251 CNS
[47] = tested on: MALME-3M melanoma
[48] = tested on: NCI-H522 lung
[49] = tested on: HCT-15 colon
[50] = tested on: SNB-78 CNS
[51] = tested on: M19-MEL melanoma
[52] = tested on: SK-MEL-28 melanoma
[53] = tested on: SF-295 CNS
[54] = tested on: SF-539 CNS
[55] = tested on: NCI-H23 lung
[56] = tested on: HCC-2998 colon
[57] = tested on: HOP-92 NSCLC
[58] = tested on: IGROV1 ovarian
[59] = tested on: SW-620 colon

Measured: TGI

CC(=O)Oc1c(C)n(CCCl)ccc1=O
73.8 µM: [19]
> 100 µM: [1] | [2] | [3] | [4] | [5] | [6] | [7] | [8] | [9] | [10] | [11] | [12] | [13] | [14] | [15] | [16] | [17] | [18] | [20] | [21] | [22] | [23] | [24] | [25] | [26] | [27] | [28] | [29] | [30] | [31] | [32] | [33] | [34] | [35] | [36] | [37] | [38] | [39] | [40] | [41] | [42] | [43] | [44] | [45] | [46] | [47] | [48] | [49] | [50] | [51] | [52] | [53]

C/C(=N\N(C)C)c1sc(-n2nc(-c3ccccc3)cc2-c2ccccc2)nc1C
> 100 µM: [3] | [4] | [5] | [6] | [7] | [8] | [9] | [10] | [11] | [54] | [13] | [14] | [15] | [16] | [17] | [18] | [55] | [19] | [20] | [21] | [22] | [23] | [24] | [56] | [26] | [27] | [28] | [57] | [29] | [30] | [31] | [32] | [33] | [34] | [35] | [36] | [37] | [38] | [39] | [40] | [41] | [42] | [43] | [44] | [45] | [46] | [47] | [48] | [49] | [50] | [58] | [51] | [52] | [59] | [53]
81.1 µM: [12]
35.3 µM: [25]
82.4 µM: [2]
